# Experiments:
# [1] = molecular target: T1, purified and unphosphorylated T315I Abl kinase domain (ABL_T315I_0P) (Mus musculus, UniProt P00520, T315I); assay: c-Abl T315I (unphosphorylated kinase domain) pyruvate kinase/lactate dehydrogenase coupled enzyme assay; format: biochemical; conditions: 10 μM ATP
# T1 construct: The c-Abl T3151 KD (kinase domain) was purified as follows; Met-Ser-Leu (vector-derived residues) (N); made in house; host or cells: E. coli BL21(DE3) strains (Codon+RIL, or pSA0145 for the lambda phosphatase co-expression plasmid)
# T1 sequence (P00520 242-493 T315I limits assumed): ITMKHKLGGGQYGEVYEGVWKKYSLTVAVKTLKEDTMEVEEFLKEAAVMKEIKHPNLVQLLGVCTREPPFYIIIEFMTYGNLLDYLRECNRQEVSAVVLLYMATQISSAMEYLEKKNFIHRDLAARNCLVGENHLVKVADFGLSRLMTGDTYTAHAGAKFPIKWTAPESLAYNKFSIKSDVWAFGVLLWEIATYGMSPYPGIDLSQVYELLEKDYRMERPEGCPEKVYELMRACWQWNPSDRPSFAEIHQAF
# Source text: Although the first of these examples uses the kinase domain of a mutant form of Abl T315I (“Abl T315I KD”), the kinase assays may use various forms of mutant and wild type enzymes, including, for example, the entire protein, the kinase domain, or a portion thereof (e.g. Abl Y393F). The kinases used in the assays may also be of varying phosphorylation states. In the c-Abl example, a mutant kinase at a zero phosphorylation state was used.
# c-Abl Pyruvate Kinase/Lactate Dehydrogenase Coupled Enzyme Assay
# In the c-Abl Pyruvate Kinase (PK)/Lactate Dehydrogenase (LDH) Coupled Assay the protein kinase dependant phosphorylation of a substrate peptide was coupled to the oxidation of NADH. The oxidation of NADH to NAD+ was detected by monitoring a decrease in absorbance at 340 nm.
# Materials: Abl substrate peptide=EAIYAAPFAKKK-OH (SEQ ID NO: 1) (Biopeptide, San Diego, Calif.); […]NADH (Sigma Cat#N-8129, FW=709.4); 2M MgCl2; 1M HEPES buffer, pH 7.5; Phosphoenolpyruvate (PEP) (Sigma Cat#P-7002, FW=234); Lactate dehydrogenase (LDH) (Worthington Biochemical Cat#2756); Pyruvate Kinase (PK) (Sigma Cat#P-9136); ATP (Sigma Cat#A-3377, FW=551); Greiner 384-well UV star plate; and purified and unphosphorylated T3151 Abl kinase domain.
# Stock Solutions: 10 mM NADH (7.09 mg/ml in miliQH2O) made fresh daily; 10 mM Abl substrate peptide (13.4 mg/ml in miliQH2O) stored at −20° C.; 100 mM HEPES buffer, pH 7.5 (5 ml 1M stock+45 ml miliQH2O); 100mM MgCl2 (5 ml 2M MgCl2+95 ml dH2O); 100 mM PEP (23.4 mg/ml in dH2O) stored at −20° C.; 10mM ATP (5.51 mg/ml in dH2O) stored at −20° C. (diluted 50 μl into total of 10 ml miliQH2O daily=50 μM ATP working stock); 1000 U/ml PK (U/mg varies with lot) flash-frozen under liquid N2 and stored at −80° C.; and 1000 U/ml LDH (U/mg varies with lot) flash-frozen under liquid N2 and stored at −80° C.
# Standard Assay Setup for 384-well format (50 μl reaction): 300 μM NADH; 10 mM MgCl2; 2 mM PEP; 45 U/ml PK; 60 U/ml LDH; 200 μM Abl substrate peptide; 2.5 μl test compound (in DMSO); 2 μg/ml Abl kinase domain; 10 μM ATP; 100 mM HEPES buffer. Positive controls contained DMSO with no test compound. Negative controls contained 5 μl of 0.5M EDTA (50 mM in the assay). The dephosphorylated form of the c-Abl T315I mutant was used in the biochemical screening assays. The kinase reaction was initiated at time t=0 by the addition of ATP.
# Activity was measured by following the time-dependent loss of NADH by absorbance spectroscopy at 340 nm. The linear portion of the resulting progress curve was then analyzed by linear regression to get the activity in absorbance units/time, reported as the slope of that best fit line (moles/unit time can be calculated from using molar extinction coefficient for NADH at 340 nm, 6250M^−1 cm^−1).
# Screening data was evaluated using the equation: Z′=1-[3*(σ++σ−)/|μ+−μ−|] (Zhang, et al., 1999 J Biomol Screening 4(2) 67-73), where μ denotes the mean and σ the standard deviation. The subscript designates positive or negative controls. The Z′ score for a robust screening assay should be ≧0.50. The typical threshold=μ+−3*σ+−. Any value that falls below the threshold was designated a “hit”.
# Dose response was analyzed using the equation: y=min+{(max−min)/(1+10^[compound]−logIC50)}, where y is the observed initial slope, max=the slope in the absence of inhibitor, min=the slope at infinite inhibitor, and the IC50 is the [compound] that corresponds to ½ the total observed amplitude (Amplitude=max−min).
# To measure modulation, activation, or inhibition of Abl KD, a test compound was added to the assay at a range of concentrations. Inhibitors may inhibit Abl KD activity at an IC50 in the micromolar range, the nanomolar range, or, for example, in the subnanomolar range.
# An open-reading frame for c-Abl was amplified from a Mus musculus (mouse) cDNA library prepared from freshly harvested mouse liver using a commercially available kit (Invitrogen) by PCR using the following primers: […]
# The c-Abl T3151 KD (kinase domain) was purified as follows. […]
# [2] = molecular target: T2, ABL P210WT BAF3 cells (Homo sapiens, UniProt P00519); assay: 96-well XTT cell survival assay, BaF3 ABL P210WT; format: cell-based; conditions: ABL P210 WT, 72 hours, read-out: CELL BIO ABL P210WT BAF3 XTT (IC50)
# T2 construct: ABL P210WT BAF3; fused on or other part: P11274 (Breakpoint cluster region protein)
# Method: (§1) MV4-11 and THP cells were maintained in Iscove's Modified Dulbecco's Medium supplemented with 10% fetal bovine serum (FBS) and penicillin/streptomycin, Ba/F3 cells were maintained in RPMI 1640 supplemented with 10% FBS, penicillin/streptomycin and 5 ng/ml recombinant mouse IL-3.
# (§2) Compounds were tested in the following assays in duplicate.
# (§3) 96-well XTT assay: Cells (e.g. BaF3 315I, M3511, or E255K cells) were grown in growth media containing various concentrations of compounds (duplicates) on a 96-well plate for 72 hours at 37° C. The starting cell number was 5000-8000 cells per well and volume was 120 μl. At the end of the 72-hour incubation, 40 μl of XTT labeling mixture (50:1 solution of sodium 3′-[1-(phenylamino-carbonyl)-3,4-tetrazolium]-bis(4-methoxy-6-nitro) benzene sulfonic acid hydrate and Electron-coupling reagent: PMS (N-methyl dibenzopyrazine methyl sulfate) were added to each well of the plate. After an additional 2-6 hours of incubation at 37° C., the absorbance reading at 405 nm with background correction at 650 nm was measured with a spectrophotometer.
# [3] = molecular target: T3, ABL T315I BAF3 cells (Homo sapiens, UniProt P00519, T315I, cells depend on it); assay: 96-well XTT cell survival assay, BaF3 ABL T315I; format: cell-based; conditions: 72 hours, read-out: CELL BIO ABL T315I BAF3 XTT (IC50)
# T3 construct: ABL T315I BAF3; fused on or other part: P11274 (Breakpoint cluster region protein)
# Method: as §1, §2, §3
ABL_T315I_0P (IC50) [1],SMILES,GI50 [2] [nM],GI50 [3] [nM]
D (<0.01 μM),"COc1ccc(F)cc1-c1c[nH]c2ncc(-c3cncc(C(O)c4ncccc4F)c3)c(Cl)c12 (stereo not drawn) [{5-[4-Chloro-3-(5-fluoro-2-methoxy-phenyl)-1H-pyrrolo[2,3-b]pyridin-5-yl]-pyridin-3-yl}-(3-fluoro-pyridin-2-yl)-methanol]",< 10,10 to 100
D (<0.01 μM),"CN(C)C(=O)c1cncc(-c2cnc3[nH]cc(-c4ccccc4)c3c2Cl)c1 [5-(4-Chloro-3-phenyl-1H-pyrrolo[2,3-b]pyridin-5-yl)-N,N-dimethyl-nicotinamide]",> 1000,> 1000
C (0.1-0.01 μM),"COc1ccccc1-c1c[nH]c2ncc(Br)c(N)c12 [5-Bromo-3-(2-methoxy-phenyl)-1H-pyrrolo[2,3-b]pyridin-4-ylamine]",> 1000,> 1000
B (1.0-0.1 μM),"COc1ccccc1-c1c[nH]c2ncc(Br)c(SC)c12 [5-Bromo-3-(2-methoxy-phenyl)-4-methylsulfanyl-1H-pyrrolo[2,3b]pyridine]",> 1000,> 1000
D (<0.01 μM),"COc1ccccc1-c1c[nH]c2ncc(-c3cncc(C(=O)C(=O)N(C)C)c3)c(OC)c12 [2-{5-[4-Methoxy-3-(2-methoxy-phenyl)-1H-pyrrolo[2,3-b]pyridin-5-yl]-pyridin-3-yl}-N,N-dimethyl-2-oxo-acetamide]",100 to 1000,10 to 100
D (<0.01 μM),"COc1ccc(F)cc1-c1c[nH]c2ncc(-c3cncc(C(=O)N(C)C)c3)c(Cl)c12 [5-[4-Chloro-3-(5-fluoro-2-methoxy-phenyl)-1H-pyrrolo[2,3-b]pyridin-5-yl]-N,N-dimethyl-nicotinamide]",< 10,10 to 100
D (<0.01 μM),"COc1ccc(F)cc1-c1c[nH]c2ncc(-c3cncc(C(=O)N(C)C)n3)c(Cl)c12 [6-[4-Chloro-3-(5-fluoro-2-methoxy-phenyl)-1H-pyrrolo[2,3-b]pyridin-5-yl]-pyrazine-2-carboxylic acid dimethylamide]",10 to 100,10 to 100
D (<0.01 μM),"CN(C)C(=O)c1nc(-c2cnc3[nH]cc(-c4ccccc4)c3c2Cl)cnc1N [3-Amino-6-(4-chloro-3-phenyl-1H-pyrrolo[2,3-b]pyridin-5-yl)-pyrazine-2-carboxylic acid dimethylamide]",100 to 1000,100 to 1000
C (0.1-0.01 μM),"COc1ccccc1-c1c[nH]c2ncc(Br)c(N(C)CCO)c12 [2-{[5-Bromo-3-(2-methoxy-phenyl)-1H-pyrrolo[2,3-b]pyridin-4-yl]-methyl-amino}-ethanol]",> 1000,> 1000

# Continued, compound first:
SMILES,ABL_T315I_0P (IC50) [1],GI50 [2] [nM],GI50 [3] [nM]
"CCN(C)C(=O)c1cc(-c2cnc3[nH]cc(-c4cccc(F)c4)c3c2Cl)cnc1N [2-Amino-5-[4-chloro-3-(3-fluoro-phenyl)-1H-pyrrolo[2,3-b]pyridin-5-yl]-N-ethyl-N-methyl-nicotinamide]",D (<0.01 μM),10 to 100,10 to 100
"CN(C)C(=O)C(=O)c1cncc(-c2cnc3[nH]cc(-c4cccc(F)c4F)c3c2Cl)c1 [2-{5-[4-Chloro-3-(2,3-difluoro-phenyl)-1H-pyrrolo[2,3-b]pyridin-5-yl]-pyridin-3-yl}-N,N-dimethyl-2-oxo-acetamide]",C (0.1-0.01 μM),> 1000,> 1000
"COc1ccccc1-c1c[nH]c2ncc(-c3cncc(C(O)C(=O)N(C)C)c3)c(N)c12 (stereo not drawn) [2-{5-[4-Amino-3-(2-methoxy-phenyl)-1H-pyrrolo[2,3-b]pyridin-5-yl]-pyridin-3-yl}-2-hydroxy-N,N-dimethyl-acetamide]",D (<0.01 μM),100 to 1000,100 to 1000
"CN(C)C(=O)c1cc(-c2cnc3[nH]cc(-c4ccc5c(c4)CC(=O)N5)c3c2Cl)cnc1N [2-Amino-5-[4-chloro-3-(2-oxo-2,3-dihydro-1H-indol-5-yl)-1H-pyrrolo[2,3-b]pyridin-5-yl]-N,N-dimethyl-nicotinamide]",D (<0.01 μM),100 to 1000,> 1000
"CN(C)C(=O)C(O)c1cncc(-c2cnc3[nH]cc(-c4ccc(F)cc4)c3c2Cl)c1 (stereo not drawn) [2-{5-[4-Chloro-3-(4-fluoro-phenyl)-1H-pyrrolo[2,3-b]pyridin-5-yl]-pyridin-3-yl}-2-hydroxy-N,N-dimethyl-acetamide]",C (0.1-0.01 μM),100 to 1000,> 1000
"COc1ccccc1-c1c[nH]c2ncc(-c3cncc(C(O)C(=O)N(C)C)c3)c(SC)c12 (stereo not drawn) [2-Hydroxy-2-{5-[3-(2-methoxy-phenyl)-4-methylsulfanyl-1H-pyrrolo[2,3-b]pyridin-5-yl]-pyridin-3-yl}-N,N-dimethyl-acetamide]",D (<0.01 μM),100 to 1000,10 to 100
"CN(C)C(=O)c1cc(-c2cnc3[nH]cc(-c4cc(F)ccc4F)c3c2Cl)cnc1N [2-Amino-5-[4-chloro-3-(2,5-difluoro-phenyl)-1H-pyrrolo[2,3-b]pyridin-5-yl]-N,N-dimethyl-nicotinamide]",D (<0.01 μM),10 to 100,100 to 1000

# Source: patent publication US8158647B2, “Substituted pyrrolopyridines and pyrazolopyridines as kinase modulators” (SGX Pharmaceuticals, Inc., priority 2007, dated 2012)
